Columns and labels:
Bacillus subtilis = assay: MIC, growth inhibition in vitro; assay type: cell-based
Excerpt: (§1) The biological properties of mersacidin as the MIC values required for inhibition of the growth of various microorganisms are listed in Table 3.

Cornybacterium JK = assay: MIC, growth inhibition in vitro; assay type: cell-based
Excerpt: as §1

Group A Streptococci = assay: MIC, growth inhibition in vitro; assay type: cell-based
Excerpt: as §1

Group B Streptococci = assay: MIC, growth inhibition in vitro; assay type: cell-based
Excerpt: as §1

Group C Streptococci = assay: MIC, growth inhibition in vitro; assay type: cell-based
Excerpt: as §1

Group G Streptococci = assay: MIC, growth inhibition in vitro; assay type: cell-based
Excerpt: as §1

Listeria monocyctogenes = assay: MIC, growth inhibition in vitro; assay type: cell-based
Excerpt: as §1

Micrococcus luteus = assay: MIC, growth inhibition in vitro; assay type: cell-based
Excerpt: as §1

[1] = tested on: Peptostreptococci species; assay: MIC, growth inhibition in vitro; assay type: cell-based
Excerpt: as §1

Propionibacterium genes = assay: MIC, growth inhibition in vitro; assay type: cell-based
Excerpt: as §1

S. aureus 20240 = assay: MIC, growth inhibition in vitro; assay type: cell-based
Excerpt: as §1

S. aureus 20424 = assay: MIC, growth inhibition in vitro; assay type: cell-based
Excerpt: as §1

S. aureus 20666 = assay: MIC, growth inhibition in vitro; assay type: cell-based
Excerpt: as §1

S. aureus 285 = assay: MIC, growth inhibition in vitro; assay type: cell-based
Excerpt: as §1

S. aureus 3066 = assay: MIC, growth inhibition in vitro; assay type: cell-based
Excerpt: as §1

S. aureus 503 = assay: MIC, growth inhibition in vitro; assay type: cell-based
Excerpt: as §1

S. aureus 710 = assay: MIC, growth inhibition in vitro; assay type: cell-based
Excerpt: as §1

S. aureus 722 = assay: MIC, growth inhibition in vitro; assay type: cell-based
Excerpt: as §1

S. aureus 789 = assay: MIC, growth inhibition in vitro; assay type: cell-based
Excerpt: as §1

S. aureus E 712 = assay: MIC, growth inhibition in vitro; assay type: cell-based
Excerpt: as §1

S. aureus E 88 = assay: MIC, growth inhibition in vitro; assay type: cell-based
Excerpt: as §1

S. aureus R 85 = assay: MIC, growth inhibition in vitro; assay type: cell-based
Excerpt: as §1

S. epidermidis MRSE = assay: MIC, growth inhibition in vitro; assay type: cell-based
Excerpt: as §1

S. epidermidis MSSE = assay: MIC, growth inhibition in vitro; assay type: cell-based
Excerpt: as §1

[2] = tested on: Staphylococcus aureus 209P; assay: MIC, growth inhibition in vitro; assay type: cell-based
Excerpt: as §1

[3] = tested on: Staphylococcus aureus SG 511; assay: MIC, growth inhibition in vitro; assay type: cell-based
Excerpt: as §1

Str. D 21777 = assay: MIC, growth inhibition in vitro; assay type: cell-based
Excerpt: as §1

Streptococcus bovis = assay: MIC, growth inhibition in vitro; assay type: cell-based
Excerpt: as §1

Streptococcus faecalis [4] = assay: MIC, growth inhibition in vitro; assay type: cell-based; conditions: Streptococcus faecalis (Table 3 no. 17)
Excerpt: as §1

Streptococcus pneumoniae = assay: MIC, growth inhibition in vitro; assay type: cell-based
Excerpt: as §1

Streptococcus viridans = assay: MIC, growth inhibition in vitro; assay type: cell-based
Excerpt: as §1

Streptococcus faecalis [5] = assay: MIC, growth inhibition in vitro (second entry, no. 27); assay type: cell-based; conditions: Streptococcus faecalis (Table 3 no. 27)
Excerpt: as §1

S. aureus SG 511 [6] = assay: In vivo activity against S. aureus SG 511 infection in mice; conditions: S. aureus SG 511, 1.75 × 10^9 CFU/mouse
Procedure: On subcutaneous administration in a dose of 9.37 and 25.00 mg/kg to laboratory mice infected experimentally with Staphylococcus aureus SG 511 and S. aureus 710 (resistant to methicillin), […].
In vivo activity of mersacidin against S. aureus SG 511
infection in mice compared with vancomycin.
Inoculation medium used: 1.75 × 10^9 CFU/mouse

S. aureus E 710 (MRSA) = assay: In vivo activity against S. aureus E 710 (MRSA) in mice; conditions: S. aureus E 710 (MRSA), 5 × 10^9 CFU/mouse (1 MLD)
Procedure: On subcutaneous administration in a dose of 9.37 and 25.00 mg/kg to laboratory mice infected experimentally with Staphylococcus aureus SG 511 and S. aureus 710 (resistant to methicillin), […]. […]

S. aureus SG 511 [7] = assay: In vivo activity against S. aureus SG 511 abscess in rats; conditions: infecting dose 2 × 10^-9 CFU in 5% mucin under the skin, 50 mg/kg × 7 days
Procedure: In vivo activity of mersacidin against S. aureus SG 511 abscess in rats, compared with vancomycin.
Infecting dose : […] in 5% mucin, injected under the skin.
Treatment: 50 mg/kg × 7 days

[8] = Animal mortality after subcutaneous dose; assay type: in vivo; conditions: laboratory mice; 500 mg/kg subcutaneous, highest concentration tested
S. aureus SG 511 [9] = assay: In vivo activity against S. aureus SG 511 infection in mice
[10] = mice, S. aureus SG 511, 1.75 × 10^9 CFU/mouse, 0.80 mg/kg × 3, s.c.
[11] = mice, S. aureus SG 511, 1.75 × 10^9 CFU/mouse, 1.60 mg/kg × 3, s.c.
[12] = mice, S. aureus SG 511, 1.75 × 10^9 CFU/mouse, 3.12 mg/kg × 3, s.c.
[13] = mice, S. aureus SG 511, 1.75 × 10^9 CFU/mouse, 6.25 mg/kg × 3, s.c.

For mersacidin, which MIC values (Bacillus subtilis) is on record?
The MIC values was 0,39-0,78 μg/ml.

And the MIC values (Cornybacterium JK)?
Its MIC values is 2,0-4,0 μg/ml.

And the MIC values (Group A Streptococci)?
The MIC values was 0,5-8,0 μg/ml.

What about the MIC values (Group B Streptococci) of the same substance?
The MIC values was 1,0-8,0 μg/ml.

What about the MIC values (Group C Streptococci) of the same substance?
The MIC values was 2,0-64 μg/ml.

What about the MIC values (Group G Streptococci) of the same substance?
The MIC values was 2,0-8,0 μg/ml.

What about the MIC values (Listeria monocyctogenes) of the same substance?
Its MIC values is 16,0-64,0 μg/ml.

And the MIC values (Micrococcus luteus)?
The MIC values was 0,0975-0,195 μg/ml.

And the MIC values [1]?
The MIC values was 0,5-8,0 μg/ml.

What about the MIC values (Propionibacterium genes) of the same substance?
Its MIC values is 1,0-16,0 μg/ml.

What about the MIC values (S. aureus 20240) of the same substance?
The MIC values was 3.12 to 6.25 µg/mL.

And the MIC values (S. aureus 20424)?
Its MIC values is 1.56 to 3.12 µg/mL.

What about the MIC values (S. aureus 20666) of the same substance?
The MIC values was 3,12-6,25 μg/ml.

What about the MIC values (S. aureus 285) of the same substance?
Its MIC values is 0,78-1,56 μg/ml.

And the MIC values (S. aureus 3066)?
Its MIC values is 12.50 to 25.00 µg/mL.

And the MIC values (S. aureus 503)?
Its MIC values is 0.78 to 1.56 µg/mL.

What about the MIC values (S. aureus 710) of the same substance?
The MIC values was 0,39-0,78 μg/ml.

What about the MIC values (S. aureus 722) of the same substance?
The MIC values was 3.12 to 6.25 µg/mL.

What about the MIC values (S. aureus 789) of the same substance?
Its MIC values is 0.78 to 1.56 µg/mL.

And the MIC values (S. aureus E 712)?
Its MIC values is 3,12-6,25 μg/ml.

What about the MIC values (S. aureus E 88) of the same substance?
Its MIC values is 6.25 to 12.50 µg/mL.

What about the MIC values (S. aureus R 85) of the same substance?
Its MIC values is 0,39-0,78 μg/ml.

What about the MIC values (S. epidermidis MRSE) of the same substance?
The MIC values was 0,5-16,0 μg/ml.

What about the MIC values (S. epidermidis MSSE) of the same substance?
The MIC values was 0,5-16,0 μg/ml.

And the MIC values [2]?
The MIC values was 0.78 to 1.56 µg/mL.

What about the MIC values [3] of the same substance?
Its MIC values is 0,39-0,78 μg/ml.

What about the MIC values (Str. D 21777) of the same substance?
The MIC values was 1,56-3,12 μg/ml.

What about the MIC values (Streptococcus bovis) of the same substance?
The MIC values was 4,0-32,0 μg/ml.

What about the MIC values (Streptococcus faecalis [4]) of the same substance?
The MIC values was 0,0975-0,195 μg/ml.

And the MIC values (Streptococcus pneumoniae)?
Its MIC values is 1,0-4,0 μg/ml.

And the MIC values (Streptococcus viridans)?
Its MIC values is 0,5-32,0 μg/ml.

And the MIC values (Streptococcus faecalis [5])?
Its MIC values is 64,0 μg/ml.

What about the “Number of mice treated/cured” value (S. aureus SG 511 [6]; 9.37 mg/kg × 3, s.c.) of the same substance?
Its value is 53/53.

And the “percentage rate of cure” value (S. aureus SG 511 [6]; 9.37 mg/kg × 3, s.c.)?
The value was 100%.

And the “Approx. ED50” value (S. aureus SG 511 [6]; s.c.)?
The value was about 2.59 mg/kg × 3.

What about the “Number of mice treated/cured” value (S. aureus E 710 (MRSA); 6.25 mg/kg × 3, s.c.) of the same substance?
Its value is 1/10.

And the “percentage rate of cure” value (S. aureus E 710 (MRSA); 6.25 mg/kg × 3, s.c.)?
Its value is 10%.

What about the “Number of mice treated/cured” value (S. aureus E 710 (MRSA); 9.37 mg/kg × 3, s.c.) of the same substance?
Its value is 4/10.

What about the “percentage rate of cure” value (S. aureus E 710 (MRSA); 9.37 mg/kg × 3, s.c.) of the same substance?
The value was 40%.

What about the “Number of mice treated/cured” value (S. aureus E 710 (MRSA); 12.50 mg/kg × 3, s.c.) of the same substance?
Its value is 10/16.

What about the “percentage rate of cure” value (S. aureus E 710 (MRSA); 12.50 mg/kg × 3, s.c.) of the same substance?
Its value is 63%.

What about the “Number of mice treated/cured” value (S. aureus E 710 (MRSA); 25.00 mg/kg × 3, s.c.) of the same substance?
The value was 12/12.

What about the “percentage rate of cure” value (S. aureus E 710 (MRSA); 25.00 mg/kg × 3, s.c.) of the same substance?
The value was 100%.

What about the “Approx. ED50” value (S. aureus E 710 (MRSA); s.c.) of the same substance?
Its value is about 10.81 mg/kg × 3.

What about the “Approx. ED90” value (S. aureus E 710 (MRSA); s.c.) of the same substance?
Its value is about 19.59 mg/kg × 3.

What about the “reduces bacterial counts by” value (S. aureus SG 511 [7]) of the same substance?
Its value is 1.4 log10 CFU/ml.

And the animal mortality [8]?
Its animal mortality is “no animal mortality was observed”.

And the “activity in the in vivo system of laboratory mice” value (S. aureus SG 511 [9]; mice infected with S. aureus SG 511 and S. aureus 710 (resistant to methicillin), 9.37 and 25.00 mg/kg s.c.)?
The value was “good activity”.

And the “Number of mice treated/cured” value (S. aureus SG 511 [9]; [10])?
The value was 0/27.

And the “percentage rate of cure” value (S. aureus SG 511 [9]; [10])?
The value was 0%.

And the “Number of mice treated/cured” value (S. aureus SG 511 [9]; [11])?
Its value is 3/24.

What about the “percentage rate of cure” value (S. aureus SG 511 [9]; [11]) of the same substance?
Its value is 12%.

And the “Number of mice treated/cured” value (S. aureus SG 511 [9]; [12])?
The value was 18/27.

What about the “percentage rate of cure” value (S. aureus SG 511 [9]; [12]) of the same substance?
The value was 67%.

And the “Number of mice treated/cured” value (S. aureus SG 511 [9]; [13])?
Its value is 38/40.

And the “percentage rate of cure” value (S. aureus SG 511 [9]; [13])?
Its value is 95%.

And the “Approx. ED90” value (S. aureus SG 511 [9]; mice, S. aureus SG 511, 1.75 × 10^9 CFU/mouse, s.c.)?
Its value is about 5.38 mg/kg × 3.
